Reference: patent US20070128217A1 (priority 2003, published 2007)

Key:
[1] = tested on: rabbit serum obtained by immunizing a rabbit with the SARS-CoV strain Frankfurt 1; format: binding; design: Binding of a rabbit serum to linear peptides / Binding of a rabbit serum to looped peptides / Rabbit serum linear peptides / Rabbit serum looped peptides / Binding of a rabbit serum to linear peptides of protein N of SARS-CoV Urbani (Rabbit serum linear peptides) / Binding of a rabbit serum to looped/cyclic peptides of protein N of SARS-CoV Urbani (Rabbit serum looped peptides): unit not given here
[2] = tested on: control sera (pooled serum of ten healthy LUMC hospital workers; commercial negative donor pooled serum from the Dutch bloodbank); format: binding, human; design: Binding of Control serum LUMC to linear peptides / Binding of Control serum Blood-bank to linear peptides / Binding of Control serum LUMC to looped peptides / Binding of Control Serum Blood-Bank to Looped peptides / Binding of Control serum LUMC to linear peptides of the protein M of SARS-CoV Urbani / Binding of Control serum Blood-bank to linear peptides of the protein M of SARS-CoV Urbani / Binding of Control serum LUMC to looped peptides of the protein M of SARS-CoV Urbani / Binding of Control Serum Blood-Bank to Looped peptides of the protein M of SARS-CoV Urbani: unit not given here
[3] = tested on: antibodies in sera from SARS patients (sera 1a, 1b, 2, 6, 37, 62, London, SARS-yellow, SARS-green); format: binding, human; design: Binding of serum 6 to linear peptides of protein X1 of SARS-CoV Urbani / Binding of serum 37 to linear peptides of protein X1 of SARS-CoV Urbani / Binding of serum 6 to looped/cyclic peptide (PEPSCAN-ELISA) / Binding of serum 37 to looped/cyclic peptide (PEPSCAN-ELISA) / Binding of serum 37 to looped/cyclic peptides of protein X1 of SARS-CoV Urbani / Binding of serum 6 to linear peptides of protein X2 / Binding of serum 37 to linear peptides of protein X2 / Binding of serum 37 to looped/cyclic peptides of protein X2 of SARS-CoV Urbani / Binding of serum 6 to linear peptides of protein M of SARS-CoV Urbani / Binding of serum 37 to linear peptides of protein M of SARS-CoV Urbani / Binding of serum 6 to looped/cyclic peptides of protein M of SARS-CoV Urbani / Binding of serum 37 to looped/cyclic peptides of protein M of SARS-CoV Urbani / Binding of serum 6 to linear peptides of protein X3 of SARS-CoV Urbani / Binding of serum 37 to linear peptides of protein X3 of SARS-CoV Urbani / Binding of serum 37 to looped/cyclic peptides of protein X3 of SARS-CoV Urbani / Binding of serum 6 to linear peptides of protein X4 of SARS-CoV Urbani / Binding of serum 37 to linear peptides of protein X4 of SARS-CoV Urbani / Binding of serum 37 to looped/cyclic peptides of protein X4 of SARS-CoV Urbani / Binding of serum 6 to linear peptides of protein X5 of SARS-CoV Urbani / Binding of serum 37 to linear peptides of protein X5 of SARS-CoV Urbani / Binding of serum 37 to looped/cyclic peptides of protein X5 of SARS-CoV Urbani / Binding of serum 6 to linear peptides of protein N of SARS-CoV Urbani / Binding of serum 37 to linear peptides of protein N of SARS-CoV Urbani / Binding of serum 6 to linear peptide (PEPSCAN-ELISA) / Binding of serum 1a to looped/cyclic peptides of protein N of SARS-CoV Urbani / Binding of serum 1b to looped/cyclic peptides of protein N of SARS-CoV Urbani / Binding of serum 2 to looped/cyclic peptides of protein N of SARS-CoV Urbani / Binding of serum 6 to looped/cyclic peptides of protein N of SARS-CoV Urbani / Binding of serum 37 to looped/cyclic peptides of protein N of SARS-CoV Urbani / Binding of serum 62 to looped/cyclic peptides of protein N of SARS-CoV Urbani / Binding of serum London to looped/cyclic peptides of protein N of SARS-CoV Urbani / Binding of serum SARS-green to looped/cyclic peptides of protein N of SARS-CoV Urbani: unit not given here

DPAGGALIARCWYLH
Rabbit serum linear peptides [1]: 0.3
Rabbit serum looped peptides [1]: 0.5
Binding of Control Serum Blood-Bank to Looped peptides [2]: 0.8
Binding of Control serum Blood-bank to linear peptides [2]: 0.7
Binding of Control serum LUMC to linear peptides [2]: 0.3
Binding of Control serum LUMC to looped peptides [2]: 0.6
Binding of serum 1a to linear peptides of protein X5 of SARS-CoV Urbani [3]: 0.7
Binding of serum 1a to looped/cyclic peptides of protein X5 of SARS-CoV Urbani [3]: 0.8
Binding of serum 1b to linear peptides of protein X5 of SARS-CoV Urbani [3]: 0.6
Binding of serum 1b to looped/cyclic peptides of protein X5 of SARS-CoV Urbani [3]: 0.5
Binding of serum 2 to linear peptides of protein X5 of SARS-CoV Urbani [3]: 0.4
Binding of serum 2 to looped/cyclic peptides of protein X5 of SARS-CoV Urbani [3]: 0.5
Binding of serum 6 to linear peptides of protein X5 of SARS-CoV Urbani [3]: 0.5
Binding of serum 6 to looped/cyclic peptides of protein X5 of SARS-CoV Urbani [3]: 0.4
Binding of serum 37 to linear peptides of protein X5 of SARS-CoV Urbani [3]: 0.8
Binding of serum 37 to looped/cyclic peptides of protein X5 of SARS-CoV Urbani [3]: 0.7
Binding of serum 62 to linear peptides of protein X5 of SARS-CoV Urbani [3]: 0.7
Binding of serum 62 to looped/cyclic peptides of protein X5 of SARS-CoV Urbani [3]: 0.6
Binding of serum London to linear peptides of protein X5 of SARS-CoV Urbani [3]: 0.6
Binding of serum London to looped/cyclic peptides of protein X5 of SARS-CoV Urbani [3]: 0.2
Binding of serum SARS-green to linear peptides of protein X5 of SARS-CoV Urbani [3]: 0.6
Binding of serum SARS-green to looped/cyclic peptides of protein X5 of SARS-CoV Urbani [3]: 0.6
Binding of serum SARS-yellow to linear peptides of protein X5 of SARS-CoV Urbani [3]: 0.2
Binding of serum SARS-yellow to looped/cyclic peptides of protein X5 of SARS-CoV Urbani [3]: 0.3

DPPNVQIHTIDGSSG
Binding of a rabbit serum to linear peptides [1]: 0.1
Binding of a rabbit serum to looped peptides [1]: 0.4
Binding of Control Serum Blood-Bank to Looped peptides [2]: 0.4
Binding of Control serum Blood-bank to linear peptides [2]: 0.3
Binding of Control serum LUMC to linear peptides [2]: 0.3
Binding of Control serum LUMC to looped peptides [2]: 0.5
Binding of serum 1a to linear peptides of protein X1 of SARS-CoV Urbani [3]: 0.5
Binding of serum 1a to looped/cyclic peptides of protein X1 of SARS-CoV Urbani [3]: 0.4
Binding of serum 1b to linear peptides of protein X1 of SARS-CoV Urbani [3]: 0.4
Binding of serum 1b to looped/cyclic peptides of protein X1 of SARS-CoV Urbani [3]: 0.2
Binding of serum 2 to linear peptides of protein X1 of SARS-CoV Urbani [3]: 0.3
Binding of serum 2 to looped/cyclic peptides of protein X1 of SARS-CoV Urbani [3]: 0.2
Binding of serum 6 to linear peptides of protein X1 of SARS-CoV Urbani [3]: 0.3
Binding of serum 6 to looped/cyclic peptides of protein X1 of SARS-CoV Urbani [3]: 0.2
Binding of serum 37 to linear peptides of protein X1 of SARS-CoV Urbani [3]: 0.5
Binding of serum 37 to looped/cyclic peptides of protein X1 of SARS-CoV Urbani [3]: 0.3
Binding of serum 62 to linear peptides of protein X1 of SARS-CoV Urbani [3]: 0.4
Binding of serum 62 to looped/cyclic peptides of protein X1 of SARS-CoV Urbani [3]: 0.3
Binding of serum London to linear peptides of protein X1 of SARS-CoV Urbani [3]: 0.2
Binding of serum London to looped/cyclic peptides of protein X1 of SARS-CoV Urbani [3]: 0.2
Binding of serum SARS-green to linear peptides of protein X1 of SARS-CoV Urbani [3]: 0.2
Binding of serum SARS-green to looped/cyclic peptides of protein X1 of SARS-CoV Urbani [3]: 0.2
Binding of serum SARS-yellow to linear peptides of protein X1 of SARS-CoV Urbani [3]: 0.2
Binding of serum SARS-yellow to looped/cyclic peptides of protein X1 of SARS-CoV Urbani [3]: 0.2

DSGFAAYNRYRIGNY
Rabbit serum linear peptides [1]: 0.2
Rabbit serum looped peptides [1]: 0.3
Binding of Control Serum Blood-Bank to Looped peptides of the protein M of SARS-CoV Urbani [2]: 0.5
Binding of Control serum Blood-bank to linear peptides of the protein M of SARS-CoV Urbani [2]: 0.5
Binding of Control serum LUMC to linear peptides of the protein M of SARS-CoV Urbani [2]: 0.5
Binding of Control serum LUMC to looped peptides of the protein M of SARS-CoV Urbani [2]: 0.5
Binding of serum 1a to linear peptides of protein M of SARS-CoV Urbani [3]: 0.6
Binding of serum 1a to looped/cyclic peptides of protein M of SARS-CoV Urbani [3]: 0.8
Binding of serum 1b to linear peptides of protein M of SARS-CoV Urbani [3]: 0.4
Binding of serum 1b to looped/cyclic peptides of protein M of SARS-CoV Urbani [3]: 0.6
Binding of serum 2 to linear peptides of protein M of SARS-CoV Urbani [3]: 0.4
Binding of serum 2 to looped/cyclic peptides of protein M of SARS-CoV Urbani [3]: 0.6
Binding of serum 6 to linear peptides of protein M of SARS-CoV Urbani [3]: 0.5
Binding of serum 6 to looped/cyclic peptides of protein M of SARS-CoV Urbani [3]: 0.6
Binding of serum 37 to linear peptides of protein M of SARS-CoV Urbani [3]: 0.4
Binding of serum 37 to looped/cyclic peptides of protein M of SARS-CoV Urbani [3]: 0.7
Binding of serum 62 to linear peptides of protein M of SARS-CoV Urbani [3]: 0.4
Binding of serum 62 to looped/cyclic peptides of protein M of SARS-CoV Urbani [3]: 0.6
Binding of serum London to linear peptides of protein M of SARS-CoV Urbani [3]: 0.3
Binding of serum London to looped/cyclic peptides of protein M of SARS-CoV Urbani [3]: 0.2
Binding of serum SARS-green to linear peptides of protein M of SARS-CoV Urbani [3]: 0.3
Binding of serum SARS-green to looped/cyclic peptides of protein M of SARS-CoV Urbani [3]: 0.4
Binding of serum SARS-yellow to linear peptides of protein M of SARS-CoV Urbani [3]: 0.1
Binding of serum SARS-yellow to looped/cyclic peptides of protein M of SARS-CoV Urbani [3]: 0.8
